Laboratory results: ChEMBL document CHEMBL5346945, “Discovery and Optimization of the First ATP Competitive Type-III c-MET Inhibitor” (J Med Chem, 2023)

How the values were obtained:
[1] = Lipophilicity, logD of compound in octanol and water at pH 7.4 measured by shake-flask method; assay type: physicochemical
[2] = target: T1, Hepatocyte growth factor receptor (Homo sapiens, UniProt P08581); assay: Inhibition of wild type c-MET (unknown origin) using ATP and poly(L-glutamic acid-L-tyrosine) as substrate incubated for 60 mins measured by ADP-Glo kinase assay
T1 sequence (P08581 whole entry): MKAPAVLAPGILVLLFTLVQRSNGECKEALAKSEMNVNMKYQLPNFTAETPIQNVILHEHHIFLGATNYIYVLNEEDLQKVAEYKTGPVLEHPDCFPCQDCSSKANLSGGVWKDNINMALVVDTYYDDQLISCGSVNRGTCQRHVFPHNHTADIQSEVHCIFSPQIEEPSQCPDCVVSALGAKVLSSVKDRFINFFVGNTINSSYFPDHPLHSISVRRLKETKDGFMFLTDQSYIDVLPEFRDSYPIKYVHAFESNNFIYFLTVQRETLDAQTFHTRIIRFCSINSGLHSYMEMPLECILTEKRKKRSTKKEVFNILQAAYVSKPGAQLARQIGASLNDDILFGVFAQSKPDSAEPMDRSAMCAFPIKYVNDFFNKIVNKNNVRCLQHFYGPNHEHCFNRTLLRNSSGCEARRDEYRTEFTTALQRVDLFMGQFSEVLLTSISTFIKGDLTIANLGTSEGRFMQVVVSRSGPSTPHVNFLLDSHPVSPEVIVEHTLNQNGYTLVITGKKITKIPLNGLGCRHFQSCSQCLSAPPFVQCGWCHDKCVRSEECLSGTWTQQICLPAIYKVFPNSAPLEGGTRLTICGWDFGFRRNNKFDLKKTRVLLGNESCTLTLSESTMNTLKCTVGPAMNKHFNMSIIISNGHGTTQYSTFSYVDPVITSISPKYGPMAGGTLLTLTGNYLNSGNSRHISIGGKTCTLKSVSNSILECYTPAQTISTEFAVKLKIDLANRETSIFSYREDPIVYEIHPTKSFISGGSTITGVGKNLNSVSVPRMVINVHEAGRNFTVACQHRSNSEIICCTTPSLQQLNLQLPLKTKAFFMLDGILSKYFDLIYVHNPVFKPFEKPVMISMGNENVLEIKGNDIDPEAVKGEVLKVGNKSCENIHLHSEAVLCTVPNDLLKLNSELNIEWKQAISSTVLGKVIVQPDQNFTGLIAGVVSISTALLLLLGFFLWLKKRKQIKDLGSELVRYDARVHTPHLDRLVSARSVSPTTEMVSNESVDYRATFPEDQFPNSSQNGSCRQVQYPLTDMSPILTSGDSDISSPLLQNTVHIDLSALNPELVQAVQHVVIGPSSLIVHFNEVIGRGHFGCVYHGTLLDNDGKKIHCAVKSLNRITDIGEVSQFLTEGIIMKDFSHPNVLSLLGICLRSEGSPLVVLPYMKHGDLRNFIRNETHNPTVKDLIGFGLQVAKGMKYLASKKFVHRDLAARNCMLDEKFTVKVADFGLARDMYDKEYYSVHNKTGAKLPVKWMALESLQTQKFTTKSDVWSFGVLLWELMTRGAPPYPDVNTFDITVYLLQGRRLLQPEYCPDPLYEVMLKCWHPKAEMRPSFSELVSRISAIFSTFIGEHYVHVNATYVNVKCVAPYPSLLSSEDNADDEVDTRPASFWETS

[3] = Permeability across basolateral to apical side in MDCK cells at 10 uM by LC-MS/MS analysis; assay type: ADME, cell-based, Canis lupus familiaris; conditions: dog, read-out: permeability
[4] = Metabolic stability in human hepatocytes assessed as intrinsic clearance measured per million cells at 1 uM measured at 0.5 to 2 hrs by LC-MS/MS analysis; assay type: ADME, cell-based, Hepatocyte; conditions: time 0.5-2 hrs, read-out: CLH
[5] = Oral bioavailability in Han Wistar rat plasma at 1 mg/kg, measured for 1 to 24 hrs by LC-MS/MS analysis; assay type: ADME, organism-based; conditions: in vivo, time 1-24 hrs
[6] = Volume of distribution at steady state in Han Wistar rat plasma at 1 mg/kg, po or 0.5 mg/kg, iv measured for 1 to 24 hrs by LC-MS/MS analysis; assay type: ADME, organism-based; conditions: in vivo, time 1-24 hrs
[7] = Ratio of drug concentration in brain to plasma of Han Wistar rat plasma at 2 micromol/kg per hour measured after 4 hrs by LC-MS/MS analysis; assay type: ADME; conditions: dose 2 µmol/kg
[8] = Metabolic stability in Han Wistar rat hepatocytes assessed as intrinsic clearance measured per million cells at 1 uM measured at 0.5 to 2 hrs by LC-MS/MS analysis; assay type: ADME, cell-based, Hepatocyte; conditions: time 0.5-2 hrs, read-out: CLH
[9] = target: T1, Hepatocyte growth factor receptor; assay: Binding affinity to wild type c-MET (unknown origin) assessed as dissociation constant measured for 120 sec by SPR analysis
[10] = Metabolic stability in human liver microsomes assessed as intrinsic clearance at 1 uM preincubated with NADPH for 8 mins followed by compound addition measured at 0.5 to 30 mins by LC-MS/MS analysis; assay type: ADME, Microsome; conditions: time 0.5-30 min, read-out: CLH
[11] = target: T1, Hepatocyte growth factor receptor; assay: Inhibition of wild type c-MET in human NCI-H1993 cells incubated for 4 hrs measured by HTRF assay; assay type: cell-based
[12] = target: Tyrosine-protein kinase receptor UFO (Homo sapiens) (UniProt P30530); conditions: dose 100.0 nM
Sequence of Tyrosine-protein kinase receptor UFO (Homo sapiens) (P30530 whole entry): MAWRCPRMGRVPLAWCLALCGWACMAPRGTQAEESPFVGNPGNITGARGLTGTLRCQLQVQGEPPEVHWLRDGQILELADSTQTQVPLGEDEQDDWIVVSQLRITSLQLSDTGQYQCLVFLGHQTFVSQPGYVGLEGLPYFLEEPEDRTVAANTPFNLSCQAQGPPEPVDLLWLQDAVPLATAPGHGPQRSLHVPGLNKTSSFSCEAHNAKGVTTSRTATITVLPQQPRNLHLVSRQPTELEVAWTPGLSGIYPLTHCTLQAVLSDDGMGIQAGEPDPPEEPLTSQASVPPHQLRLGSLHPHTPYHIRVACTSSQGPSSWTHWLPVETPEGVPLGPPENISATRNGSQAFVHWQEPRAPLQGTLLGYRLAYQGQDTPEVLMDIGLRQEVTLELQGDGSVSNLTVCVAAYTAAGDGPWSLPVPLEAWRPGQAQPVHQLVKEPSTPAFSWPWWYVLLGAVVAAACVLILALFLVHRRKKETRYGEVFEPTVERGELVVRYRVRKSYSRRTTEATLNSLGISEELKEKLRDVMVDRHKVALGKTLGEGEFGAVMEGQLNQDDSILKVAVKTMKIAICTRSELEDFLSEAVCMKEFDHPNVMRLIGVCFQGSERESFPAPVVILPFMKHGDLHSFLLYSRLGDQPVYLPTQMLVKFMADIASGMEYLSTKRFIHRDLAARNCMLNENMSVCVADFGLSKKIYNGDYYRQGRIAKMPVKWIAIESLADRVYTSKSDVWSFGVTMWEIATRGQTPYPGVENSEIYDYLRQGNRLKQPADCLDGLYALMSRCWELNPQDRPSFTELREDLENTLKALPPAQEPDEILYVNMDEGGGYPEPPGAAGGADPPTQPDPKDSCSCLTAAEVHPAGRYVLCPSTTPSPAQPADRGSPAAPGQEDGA
Description: Inhibition of AXL (unknown origin) at 100 nM relative to control

[13] = target: T1, Hepatocyte growth factor receptor; conditions: dose 100.0 nM
Description: Inhibition of c-MET (unknown origin) at 100 nM relative to control

[14] = target: T2, Tyrosine-protein kinase Mer (Homo sapiens) (UniProt Q12866); conditions: dose 100.0 nM
T2 sequence (whole entry): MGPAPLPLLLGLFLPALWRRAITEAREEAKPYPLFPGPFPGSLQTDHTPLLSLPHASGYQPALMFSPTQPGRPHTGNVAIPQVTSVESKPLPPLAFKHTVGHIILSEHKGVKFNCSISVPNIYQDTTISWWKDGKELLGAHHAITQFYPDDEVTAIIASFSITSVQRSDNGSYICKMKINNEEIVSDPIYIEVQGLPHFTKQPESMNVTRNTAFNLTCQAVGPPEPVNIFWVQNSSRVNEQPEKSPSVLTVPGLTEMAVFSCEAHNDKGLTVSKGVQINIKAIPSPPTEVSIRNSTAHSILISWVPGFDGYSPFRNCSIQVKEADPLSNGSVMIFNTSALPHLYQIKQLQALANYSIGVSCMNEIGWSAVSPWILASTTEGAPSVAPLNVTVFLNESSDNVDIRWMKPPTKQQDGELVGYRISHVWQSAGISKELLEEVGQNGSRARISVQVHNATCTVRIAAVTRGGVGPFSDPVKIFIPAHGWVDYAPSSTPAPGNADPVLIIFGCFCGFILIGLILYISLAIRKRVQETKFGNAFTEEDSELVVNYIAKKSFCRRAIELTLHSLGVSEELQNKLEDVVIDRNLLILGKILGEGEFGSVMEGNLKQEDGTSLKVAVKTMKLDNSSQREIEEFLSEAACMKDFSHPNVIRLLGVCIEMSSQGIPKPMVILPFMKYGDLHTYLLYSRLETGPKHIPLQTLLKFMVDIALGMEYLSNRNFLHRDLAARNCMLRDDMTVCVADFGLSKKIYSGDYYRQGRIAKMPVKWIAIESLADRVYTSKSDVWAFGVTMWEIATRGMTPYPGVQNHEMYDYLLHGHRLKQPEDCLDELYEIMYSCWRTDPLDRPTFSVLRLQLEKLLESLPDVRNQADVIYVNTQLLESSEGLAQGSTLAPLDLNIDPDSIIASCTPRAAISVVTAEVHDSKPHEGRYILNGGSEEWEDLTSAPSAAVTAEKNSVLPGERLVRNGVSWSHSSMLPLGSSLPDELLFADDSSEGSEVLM
Description: Inhibition of MERTK (unknown origin) at 100 nM relative to control

[15] = target: Macrophage-stimulating protein receptor (Homo sapiens) (UniProt Q04912); conditions: dose 100.0 nM
Sequence of Macrophage-stimulating protein receptor (Homo sapiens) (Q04912 25-304 limits assumed): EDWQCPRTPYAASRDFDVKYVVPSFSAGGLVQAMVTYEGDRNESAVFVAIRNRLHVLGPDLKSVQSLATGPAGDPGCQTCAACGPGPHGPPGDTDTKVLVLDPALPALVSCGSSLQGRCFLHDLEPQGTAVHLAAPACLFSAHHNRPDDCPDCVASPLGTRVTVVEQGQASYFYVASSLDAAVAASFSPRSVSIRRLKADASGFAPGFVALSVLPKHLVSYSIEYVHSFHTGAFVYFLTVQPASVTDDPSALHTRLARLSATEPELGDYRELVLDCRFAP
Sequence of Macrophage-stimulating protein receptor (Homo sapiens) (Q04912 310-1400 limits assumed): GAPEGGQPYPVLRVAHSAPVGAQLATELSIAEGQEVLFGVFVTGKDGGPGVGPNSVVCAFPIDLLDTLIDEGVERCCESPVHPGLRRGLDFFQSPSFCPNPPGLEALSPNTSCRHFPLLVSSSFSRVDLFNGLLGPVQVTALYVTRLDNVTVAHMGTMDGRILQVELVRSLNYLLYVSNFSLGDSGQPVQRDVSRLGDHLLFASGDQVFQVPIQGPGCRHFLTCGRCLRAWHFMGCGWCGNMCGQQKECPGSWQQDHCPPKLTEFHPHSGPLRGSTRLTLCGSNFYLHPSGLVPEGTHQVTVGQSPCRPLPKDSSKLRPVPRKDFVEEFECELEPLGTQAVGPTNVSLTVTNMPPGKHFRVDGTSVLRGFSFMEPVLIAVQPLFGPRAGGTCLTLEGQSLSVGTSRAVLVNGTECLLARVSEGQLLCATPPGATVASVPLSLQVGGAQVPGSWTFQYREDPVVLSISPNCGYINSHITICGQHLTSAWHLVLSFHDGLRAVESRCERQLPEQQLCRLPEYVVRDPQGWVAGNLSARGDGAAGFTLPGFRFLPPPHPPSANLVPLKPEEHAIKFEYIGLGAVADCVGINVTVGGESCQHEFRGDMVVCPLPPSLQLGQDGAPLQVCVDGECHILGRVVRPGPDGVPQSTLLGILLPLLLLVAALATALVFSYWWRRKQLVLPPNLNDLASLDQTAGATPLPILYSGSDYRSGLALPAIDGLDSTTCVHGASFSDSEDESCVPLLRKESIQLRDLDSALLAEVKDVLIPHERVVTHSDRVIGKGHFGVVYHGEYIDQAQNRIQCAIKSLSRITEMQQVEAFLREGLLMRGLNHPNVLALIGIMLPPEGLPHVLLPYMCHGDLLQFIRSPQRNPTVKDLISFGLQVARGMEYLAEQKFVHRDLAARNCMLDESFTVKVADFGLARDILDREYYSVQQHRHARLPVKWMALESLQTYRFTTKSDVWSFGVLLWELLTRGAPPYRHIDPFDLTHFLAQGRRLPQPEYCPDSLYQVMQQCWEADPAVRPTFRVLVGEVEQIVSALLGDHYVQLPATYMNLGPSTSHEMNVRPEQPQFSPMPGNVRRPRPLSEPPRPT
Description: Inhibition of MST1R (unknown origin) at 100 nM relative to control

| SMILES | logD [1] | IC50 [2] [nM] | hepatocyte CLint at 1 µM [8] [µL/min/1e6 cells] | Kd [9] [nM] | microsomal CLint at 1 µM [10] [µL/min/mg] | further results |
| --- | --- | --- | --- | --- | --- | --- |
| C[C@@H](c1ccc(F)cc1)n1cc(-c2cc(F)cc3cn[nH]c23)c(=O)[nH]c1=O | 2.8 | 150 | – | – | – | Papp B→A at 10 µM [3]: 22.4 ×10⁻⁶ cm/s; hepatocyte CLint at 1 µM [4]: 1.81 µL/min/1e6 cells; F [5]: 57%; Vdss [6]: 4.3 L/kg; K(p,uu,brain) [7]: 0.11 |
| C[C@@H](c1ccc(F)cc1)n1cc(-c2cc(F)cc3c(C#N)n[nH]c23)c(=O)[nH]c1=O | 3.3 | 75 | – | – | – | Papp B→A at 10 µM [3]: 25.6 ×10⁻⁶ cm/s; hepatocyte CLint at 1 µM [4]: 2.48 µL/min/1e6 cells; F [5]: 96%; Vdss [6]: 1.5 L/kg; K(p,uu,brain) [7]: 0.014 |
| CC(c1cccc(-c2c[nH]cn2)c1)n1cc(-c2cccc3cn[nH]c23)c(=O)[nH]c1=O (stereo unspecified) | 2.3 | – | 5.84 | 460 | 8.92 | – |
| CC(c1ccc(F)cc1)n1cc(-c2cc(F)cc3cn[nH]c23)c(=O)[nH]c1=O (stereo unspecified) | 2.7 | 530 | 11.9 | – | 5.61 | – |
| CC(c1ccc(F)cc1)n1cc(-c2cc(F)cc3c(C#N)n[nH]c23)c(=O)[nH]c1=O (stereo unspecified) | 3.2 | 310 | 4.4 | – | < 3 | EC50 [11]: 18700 nM |
| CC(c1ccccn1)n1cc(-c2cc(F)cc3c(C#N)n[nH]c23)c(=O)[nH]c1=O (stereo unspecified) | 2.1 | 1200 | 3.08 | – | < 3 | EC50 [11]: > 29800 nM |
| CC(c1cccc(Cl)c1)n1cc(-c2cc(F)cc(F)c2)c(=O)[nH]c1=O (stereo unspecified) | 3.8 | – | 177 | 1000 | 27.4 | – |
| CC(c1cccc(-c2cc[nH]n2)c1)n1cc(-c2cc(F)cc(F)c2)c(=O)[nH]c1=O (stereo unspecified) | 3.5 | – | 24.7 | 2600 | 5.04 | – |
| Cc1n[nH]c2c(-c3cn(C(C)c4ccccc4)c(=O)[nH]c3=O)cccc12 (stereo unspecified) | 2.7 | 430 | 37 | 180 | 17.8 | – |
| CC(c1ccccc1)n1cc(-c2cc(F)cc3cn[nH]c23)c(=O)[nH]c1=O (stereo unspecified) | 2.5 | 400 | 14 | 120 | 4.04 | – |
| CC(c1ccccc1)n1cc(-c2c(F)ccc3cn[nH]c23)c(=O)[nH]c1=O (stereo unspecified) | 2.5 | 2200 | 28.3 | 440 | 7.35 | – |
| C#Cc1n[nH]c2c(-c3cn(C(C)c4ccccc4)c(=O)[nH]c3=O)cc(F)cc12 (stereo unspecified) | 3.3 | 31 | – | – | – | EC50 [11]: 1950 nM; Papp B→A at 10 µM [3]: 14.2 ×10⁻⁶ cm/s; hepatocyte CLint at 1 µM [4]: 4.27 µL/min/1e6 cells; F [5]: 100%; Vdss [6]: 4.6 L/kg; K(p,uu,brain) [7]: 0.1 |
| CC(c1ccccc1)n1cc(-c2cc(F)cc3c(C#N)n[nH]c23)c(=O)[nH]c1=O (stereo unspecified) | 3.1 | 130 | 51.4 | 87 | 11.4 | – |
| CC(c1ccccc1Cl)n1cc(-c2cc(F)cc(F)c2)c(=O)[nH]c1=O (stereo unspecified) | 3.6 | – | 227 | 36000 | 38.3 | – |
| C#Cc1n[nH]c2c(-c3cn(C(C)c4ccccc4)c(=O)[nH]c3=O)cccc12 (stereo unspecified) | 3.2 | 40 | 9.1 | – | 12.8 | – |
| O=c1[nH]c(=O)n(Cc2ccccc2)cc1-c1cc(F)cc(F)c1 | 3 | – | 76.7 | > 100000 | 20.6 | – |
| CC(c1ccccc1)n1cc(-c2cc(F)cc(F)c2)c(=O)[nH]c1=O (stereo unspecified) | 3.2 | – | 123 | 2500 | 17.8 | – |
| CC(c1ccccc1)n1cc(-c2ccccc2)c(=O)[nH]c1=O (stereo unspecified) | 2.7 | – | 185 | 3900 | 50.1 | – |
| C#Cc1n[nH]c2c(-c3cn([C@@H](C)c4ccccc4)c(=O)[nH]c3=O)cc(F)cc12 | 3.4 | 13 | 15 | – | < 3 | EC50 [11]: 1170 nM; inhibition [12]: < 50%; inhibition [13]: 80%; inhibition [14]: 80%; inhibition [15]: < 50% |
| CC(c1cccc(-c2c[nH]cn2)c1)n1cc(-c2cc(F)cc(F)c2)c(=O)[nH]c1=O (stereo unspecified) | 3.2 | – | 6.03 | 520 | 16.2 | – |
| CC(c1ccccc1)n1cc(-c2cccc3c(F)n[nH]c23)c(=O)[nH]c1=O (stereo unspecified) | 3 | 810 | 49.4 | 240 | 32.4 | – |
| CC(c1ccccc1)n1cc(-c2cccc3cn[nH]c23)c(=O)[nH]c1=O (stereo unspecified) | 2.4 | 1300 | 46.1 | 240 | 6.13 | – |
| CC(c1ccc(F)cc1)n1cc(-c2cc(F)cc(F)c2)c(=O)[nH]c1=O (stereo unspecified) | – | – | 26.8 | 1200 | 17.4 | – |
| C#Cc1n[nH]c2c(-c3cn(C(C)c4ccccn4)c(=O)[nH]c3=O)cc(F)cc12 (stereo unspecified) | 2.5 | 55 | – | – | – | Papp B→A at 10 µM [3]: 37.9 ×10⁻⁶ cm/s; hepatocyte CLint at 1 µM [4]: 1.29 µL/min/1e6 cells; F [5]: 91%; Vdss [6]: 1.6 L/kg; K(p,uu,brain) [7]: 0.022 |
| CC(c1ccccc1)n1cc(-c2cccc3c(C#N)n[nH]c23)c(=O)[nH]c1=O (stereo unspecified) | 2.9 | 500 | 41.4 | 200 | 32.7 | – |
| C[C@@H](c1ccccc1)n1cc(-c2cc(F)cc(F)c2)c(=O)[nH]c1=O | 3.1 | – | 133 | 920 | 7.68 | – |
| CC(c1ccccc1)n1cc(-c2ccc3[nH]ccc3c2)c(=O)[nH]c1=O (stereo unspecified) | 2.9 | – | 217 | 520 | 25.4 | – |
| CC(c1ccccc1)n1cc(-c2ccccn2)c(=O)[nH]c1=O (stereo unspecified) | 2.2 | – | 300 | 4500 | 12.6 | – |
| CC(c1cccc(-c2cn[nH]c2)c1)n1cc(-c2cc(F)cc(F)c2)c(=O)[nH]c1=O (stereo unspecified) | 3.4 | – | 22.3 | 800 | < 3 | – |
| CC(c1ccccc1)n1cc(-c2ncccn2)c(=O)[nH]c1=O (stereo unspecified) | 0.85 | – | 4.67 | 2700 | < 3 | – |
